Reference: patent publication US10087217B2 (priority 2013, dated 2018)

System: U87 cells
Test: Competitive inhibition of integrin targeted transduction mediated by AAV2^N587+1/azido+RGD
Type: cell-based

Substance: dibenzocyclooctyne [DIBO]
- competitive inhibition of DIBO-RGD coupling effect: competitively inhibit
